According to ChEMBL document CHEMBL3286257, “Development of second generation EP2 antagonists with high selectivity” (Eur J Med Chem, 2014):

Columns and labels:
[1] = molecular target: Prostaglandin E2 receptor EP2 subtype (Homo sapiens) (UniProt P43116); experiment: Antagonist activity at EP2 receptor (unknown origin) expressed in rat C6 cells assessed as inhibition of PGE2-induced response; type: cell-based
[2] = Metabolic stability of the compound in mouse liver microsomes assessed as compound remaining at 10 uM after 15 mins; type: ADME; details: read-out: Stability
[3] = Metabolic stability of the compound in human liver microsomes assessed as compound remaining at 10 uM after 15 mins; type: ADME; details: read-out: Stability
[4] = Aqueous solubility of the compound by nephelometry method; type: physicochemical; details: buffer
[5] = Metabolic stability of the compound in human liver microsomes assessed as compound remaining at 10 uM after 30 mins; type: ADME; details: read-out: Stability
[6] = Metabolic stability of the compound in mouse liver microsomes assessed as compound remaining at 10 uM after 60 mins; type: ADME; details: read-out: Stability
[7] = Metabolic stability of the compound in mouse liver microsomes assessed as compound remaining at 10 uM after 30 mins; type: ADME; details: read-out: Stability
[8] = Metabolic stability of the compound in human liver microsomes assessed as compound remaining at 10 uM after 60 mins; type: ADME; details: read-out: Stability
[9] = molecular target: Prostaglandin E2 receptor EP4 subtype (Homo sapiens) (UniProt P35408); experiment: Antagonist activity at EP4 receptor (unknown origin) expressed in rat C6 cells assessed as inhibition of PGE2-induced response; type: cell-based
Prostaglandin E2 receptor EP4 subtype (Homo sapiens), sequence (P35408 whole entry): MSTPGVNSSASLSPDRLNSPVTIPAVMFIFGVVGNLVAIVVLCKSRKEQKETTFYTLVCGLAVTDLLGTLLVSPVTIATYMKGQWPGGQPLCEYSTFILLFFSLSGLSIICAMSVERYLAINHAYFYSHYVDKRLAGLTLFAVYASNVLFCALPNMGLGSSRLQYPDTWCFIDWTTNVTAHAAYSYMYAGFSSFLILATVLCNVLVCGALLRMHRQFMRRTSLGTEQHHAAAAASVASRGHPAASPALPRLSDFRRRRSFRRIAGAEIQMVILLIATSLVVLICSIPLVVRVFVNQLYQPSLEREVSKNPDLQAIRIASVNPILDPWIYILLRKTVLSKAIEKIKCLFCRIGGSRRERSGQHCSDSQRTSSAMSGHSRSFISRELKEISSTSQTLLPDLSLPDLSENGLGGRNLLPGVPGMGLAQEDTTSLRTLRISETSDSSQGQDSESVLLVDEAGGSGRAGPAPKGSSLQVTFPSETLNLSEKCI

[10] = molecular target: Prostacyclin receptor (Homo sapiens) (UniProt P43119); experiment: Antagonist activity at IP receptor (unknown origin) expressed in rat C6 cells by TR-FRET assay; type: cell-based
Prostacyclin receptor (Homo sapiens), sequence (P43119 whole entry): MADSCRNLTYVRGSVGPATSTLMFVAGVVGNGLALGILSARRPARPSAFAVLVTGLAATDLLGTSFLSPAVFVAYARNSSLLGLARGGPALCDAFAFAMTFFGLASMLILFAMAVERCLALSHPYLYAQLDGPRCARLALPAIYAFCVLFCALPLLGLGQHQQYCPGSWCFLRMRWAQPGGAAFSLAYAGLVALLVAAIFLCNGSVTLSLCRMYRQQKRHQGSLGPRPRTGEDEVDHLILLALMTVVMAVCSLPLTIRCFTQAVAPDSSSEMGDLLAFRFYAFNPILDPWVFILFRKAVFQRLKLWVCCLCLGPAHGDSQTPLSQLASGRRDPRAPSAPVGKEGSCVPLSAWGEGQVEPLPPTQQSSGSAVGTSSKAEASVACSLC

[11] = molecular target: T1, Prostaglandin D2 receptor (Homo sapiens) (UniProt Q13258); experiment: Antagonist activity at DP1 receptor (unknown origin) expressed in rat C6 cells by TR-FRET assay; type: cell-based
T1 sequence (whole entry): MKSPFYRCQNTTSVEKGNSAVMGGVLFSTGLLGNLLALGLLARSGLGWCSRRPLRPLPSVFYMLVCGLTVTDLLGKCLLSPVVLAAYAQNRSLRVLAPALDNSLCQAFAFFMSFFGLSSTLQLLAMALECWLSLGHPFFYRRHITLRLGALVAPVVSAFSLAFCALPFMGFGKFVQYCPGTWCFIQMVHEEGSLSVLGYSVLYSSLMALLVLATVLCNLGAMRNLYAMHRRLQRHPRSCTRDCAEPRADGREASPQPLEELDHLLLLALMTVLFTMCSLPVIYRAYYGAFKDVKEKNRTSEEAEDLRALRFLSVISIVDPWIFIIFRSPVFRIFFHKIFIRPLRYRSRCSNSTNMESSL

C6 = experiment: Cytotoxicity against rat C6 cells; type: cell-based; details: c6

Prostaglandin E2 receptor EP2 subtype (Homo sapiens), sequence (P43116 whole entry): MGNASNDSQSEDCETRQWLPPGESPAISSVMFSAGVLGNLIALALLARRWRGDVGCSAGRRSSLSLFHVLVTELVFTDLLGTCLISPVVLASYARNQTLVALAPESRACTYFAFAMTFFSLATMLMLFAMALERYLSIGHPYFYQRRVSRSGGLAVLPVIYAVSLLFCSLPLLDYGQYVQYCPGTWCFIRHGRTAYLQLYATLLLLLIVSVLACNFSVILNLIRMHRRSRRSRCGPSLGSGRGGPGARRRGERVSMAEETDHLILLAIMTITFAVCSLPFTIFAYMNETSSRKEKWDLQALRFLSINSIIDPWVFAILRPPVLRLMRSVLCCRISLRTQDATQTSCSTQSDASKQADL

## Cc1cc2cc(F)ccc2n1CCNC(=O)c1ccc(N2CCOCC2)cc1
[1]
  Kb: 14.9 nM

## Cc1cc2ccccc2n1CCNC(=O)c1ccc(CNC(=O)OC(C)(C)C)cc1
[1]
  Kb: 84 nM

## CCNc1ccc(C(=O)NCCn2c(C)cc3ccccc32)cc1
[1]
  Kb: 15.5 nM

## Cc1cc2ccccc2n1CCNC(=O)c1ccc(C#N)cc1F
[1]
  Kb: 280 nM

## Cc1cc2ccccc2n1CCNC(=O)c1ccc(NC(=N)N)cc1
[1]
  Kb: > 1000 nM

## Cc1cc2ccccc2n1CCNC(=O)c1ccc(C#N)c(F)c1
[1]
  Kb: 140 nM

## CCNc1ncc(C(=O)NCCC2C(C)=Nc3ccccc32)cn1 (centres undefined)
[1]
  Kb: 155 nM

## Cc1cc2ccccc2n1CCNC(=O)c1ccc2[nH]nnc2c1
[1]
  Kb: 87.5 nM

## Cc1cc2ccccc2n1CCNC(=O)c1ccc(N2CCNCC2)cc1
[1]
  Kb: 410 nM

## Cc1cc2ccccc2n1CCNC(=O)c1ccc(C(=O)OC(C)(C)C)cc1
[1]
  Kb: 100 nM

## CCOC(=O)C1CCN(c2ccc(C(=O)NCCn3c(C)cc4ccccc43)cc2)CC1
[1]
  Kb: 500 nM

## Cc1cc2ccccc2n1CCNC(=O)c1cnc(N)nc1
[1]
  Kb: > 1000 nM

## CCN(CC)C(=O)c1ccc(C(=O)NCCn2c(C)cc3ccccc32)cc1
[1]
  Kb: 800 nM

## Cc1[nH]c2ccccc2c1CCNC(=O)c1ccc(N2CCOCC2)c(F)c1
[1]
  Kb: 66 nM

## CC(=O)Oc1ccc(C(=O)NCCn2c(C)cc3ccccc32)cc1
[1]
  Kb: 150 nM

## Cc1[nH]c2ccccc2c1CCNC(=O)c1ccc(N2CCN(C)CC2)cc1
[1]
  Kb: 135 nM

## CCN(CC)c1ccc(C(=O)NCCn2c(C)cc3ccccc32)cc1OC
[1]
  Kb: 61.2 nM

## Cc1cc2ccccc2n1CCNC(=O)c1ccc(CN2CCN(C)CC2)cc1
[1]
  Kb: > 1000 nM

## O=C(NCCn1c(C(F)(F)F)cc2ccccc21)c1ccc(N2CCOCC2)cc1
[1]
  Kb: 120 nM

## Cc1cc2ccccc2n1C1CCCN(C(=O)c2ccc(N3CCOCC3)cc2)C1 (centres undefined)
[1]
  Kb: > 1000 nM

## Cc1cc2ccccc2n1CCNC(=O)c1ccc(NC(=O)c2ccccc2F)cc1
[1]
  Kb: 51 nM

## Cc1cc2ccccc2n1CCNC(=O)c1ccc(C(=O)N(C)C)cc1
[1]
  Kb: > 1000 nM

## CC(=O)Nc1ccc(C(=O)NCCn2c(C)cc3ccccc32)cc1F
[1]
  Kb: 530 nM

## Cc1cc2ccccc2n1CCNC(=O)c1ccc(-n2nn[nH]c2=S)cc1
[1]
  Kb: 32.2 nM

## Cc1cc2ccccc2n1CCNC(=O)c1cnc(Nc2ccccc2)nc1
[2]
  remaining at […], 10 µM: 71%
[1]
  Kb: 1.6 nM
[3]
  remaining at […], 10 µM: 88%
[4]
  solubility kinetic: < 25 µM
[5]
  remaining at 0.5 h, 10 µM: 67%
[6]
  remaining at 1 h, 10 µM: 35%
[7]
  remaining at 0.5 h, 10 µM: 59%
[8]
  remaining at 1 h, 10 µM: 50%

## Cc1cc2ccccc2n1CCNC(=O)c1ccc(CN)cc1
[1]
  Kb: 690 nM

## COc1cc(C(=O)NCCn2c(C)cc3ccccc32)cc(OC)c1OC
[1]
  Kb: > 1000 nM

## CC(=O)Nc1ccc(C(=O)NCCc2c(C)[nH]c3ccccc23)cc1
[1]
  Kb: 138 nM

## Cc1cc2ccccc2n1CCNC(=O)c1ccc(N2CCC(C)CC2)cc1
[1]
  Kb: 30.3 nM

## Cc1cc2ccccc2n1CCNC(=O)c1ccc(N)cc1
[1]
  Kb: 210 nM

## Cc1cc2ccccc2n1CCNC(=O)c1cnc2ccc(F)cc2c1O
[1]
  Kb: 175 nM

## Cc1cc2ccccc2n1CCNC(=O)c1ccc(N(C)C)cc1
[2]
  remaining at […], 10 µM: < 1%
[1]
  Kb: 9.8 nM
[3]
  remaining at […], 10 µM: 27%
[4]
  solubility kinetic: < 25 µM
[9]
  Kb: 51000 nM
[10]
  Kb: 4700 nM
[11]
  Kb: 6430 nM
[5]
  remaining at 0.5 h, 10 µM: 7%
[6]
  remaining at 1 h, 10 µM: < 1%
[7]
  remaining at 0.5 h, 10 µM: < 1%
[8]
  remaining at 1 h, 10 µM: < 1%
C6
  CC50: 310000 nM

## Cc1cc2ccccc2n1CCNC(=O)c1ccc(OC2CCNCC2)cc1
[1]
  Kb: > 1000 nM

## Cc1cc2ccccc2n1CCNC(=O)C1CCC(c2ncccn2)CC1 (centres undefined)
[1]
  Kb: 380 nM

## CCN(CC)c1ccc(C(=O)NCCCn2c(C)cc3ccccc32)cc1
[1]
  Kb: > 1000 nM

## CCN(CC)C(=O)c1ccc(C(=O)NCCc2c(C)[nH]c3ccccc23)cc1
[1]
  Kb: > 1000 nM

## CCN(CC)c1ccc(C(=O)NCCn2c(C)cc3ccccc32)cc1F
[1]
  Kb: 4.6 nM

## Cc1[nH]c2ccccc2c1CCNC(=O)c1ccc(N2CCCCC2)cc1
[1]
  Kb: 19.8 nM

## Cc1cc2ccccc2n1CCNC(=O)c1ccc(C#N)cc1
[1]
  Kb: 140 nM

## Cc1cc2ccccc2n1CCNC(=O)c1ccc(C(N)=O)cc1
[1]
  Kb: 150 nM

## Cc1cc2ccccc2n1CCNC(=O)c1ccc(O)cc1
[1]
  Kb: > 1000 nM

## Cc1cc2ccccc2n1CCNC(=O)c1ccc(C2CCCCC2)cc1
[1]
  Kb: 120 nM

## COc1ccc(C(=O)NCCn2c(C)cc3ccccc32)cc1F
[1]
  Kb: 86.8 nM

## CC(=O)Nc1ccc(C(=O)NCCn2c(C)cc3ccccc32)cc1
[1]
  Kb: 97 nM

## Cc1cc2ccccc2n1CCNC(=O)c1ccc(N2CCN(C)CC2)cc1
[1]
  Kb: 64 nM

## Cc1cc2ccccc2n1CCNC(=O)C1CCC(=O)N1 (centres undefined)
[1]
  Kb: > 1000 nM

## O=C(NC1CCc2[nH]c3ccccc3c2C1)c1ccc(N2CCOCC2)cc1 (centres undefined)
[1]
  Kb: > 1000 nM

## Cc1cc2ccccc2n1CCNC(=O)c1cccnc1N
[1]
  Kb: 520 nM

## Cc1cc2ccccc2n1CCNC(=O)c1ccc2[nH]c(=S)[nH]c(=O)c2c1
[1]
  Kb: 84.1 nM

## Cc1cc2ccccc2n1CCNC(=O)c1cccc(N2CCOCC2)c1
[1]
  Kb: > 1000 nM

## Cc1cc2ccccc2n1CCNC(=O)c1ccc(N(C)C)c(F)c1
[1]
  Kb: 18.1 nM

## CCN(CC)c1ccc(C(=O)OCCn2c(C)cc3ccccc32)cc1
[1]
  Kb: > 1000 nM

## CCN(CC)c1ccc(C(=O)NCCn2c(C(F)(F)F)cc3ccccc32)cc1
[1]
  Kb: 150 nM

## Cc1cc2ccccc2n1CCNC(=O)c1ccc(CN2CCOCC2)cc1
[1]
  Kb: 970 nM

## Cc1cc2ccccc2n1CCNC(=O)c1cnc(N2CCOCC2)nc1
[1]
  Kb: 76.5 nM

## CCN(CC)c1ccc(C(=O)NCCn2c(C)nc3ccccc32)cc1
[1]
  Kb: 190 nM

## Cc1cc2ccccc2n1CCNC(=O)c1ccc(C2CCCNC2)cc1 (centres undefined)
[1]
  Kb: > 1000 nM

## CC(=O)N1CCN(c2ccc(C(=O)NCCn3c(C)cc4ccccc43)cc2)CC1
[1]
  Kb: 50.2 nM

## Cc1cc2ccccc2n1CCNC(=O)c1cccc(N2CCN(C)CC2)c1
[1]
  Kb: 770 nM

## Cc1cc2ccccc2n1CCNC(=O)c1cccc(S(N)(=O)=O)c1
[1]
  Kb: > 1000 nM

## Cc1cc2ccccc2n1CCNC(=O)c1ccc(N2CCCN(C)CC2)cc1
[1]
  Kb: 148 nM

## COc1ccc(C(=O)NCCn2c(C)cc3ccccc32)cc1OC
[1]
  Kb: 22.3 nM

## CCNc1ncc(C(=O)NCCn2c(C)cc3ccccc32)cn1
[1]
  Kb: 57.8 nM

## Cc1cc2ccccc2n1CCNC(=O)c1ccc(-n2cnnn2)cc1
[2]
  remaining at […], 10 µM: 50%
[1]
  Kb: 42.2 nM
[3]
  remaining at […], 10 µM: 75%
[4]
  solubility kinetic: < 25 µM
[5]
  remaining at 0.5 h, 10 µM: 54%
[6]
  remaining at 1 h, 10 µM: 7.5%
[7]
  remaining at 0.5 h, 10 µM: 26%
[8]
  remaining at 1 h, 10 µM: 26%

## CC1=Nc2ccccc2C1CCNC(=O)c1cnc(N2CCOCC2)nc1 (centres undefined)
[1]
  Kb: 280 nM

## Cc1cc2ccccc2n1CCNC(=O)c1ccc(S(N)(=O)=O)cc1
[1]
  Kb: 486 nM

## Cc1cc2ccccc2n1CCNC(=O)c1ccc(CCN)cc1
[1]
  Kb: 1220 nM

## CCN(CC)c1ccc(C(=O)NCCn2cnc3ccccc32)cc1
[1]
  Kb: > 1000 nM

## CCNc1ccc(C(=O)NCCn2c(C)cc3ccccc32)cc1C(F)(F)F
[1]
  Kb: 20.2 nM

## Cc1cc2ccccc2n1CCNC(=O)c1nc2cc(F)ccc2[nH]1
[1]
  Kb: 130 nM

## Cc1cc2ccccc2n1CCNC(=O)c1ccc(C2CCCN(C(=O)OC(C)(C)C)C2)cc1 (centres undefined)
[1]
  Kb: 95 nM

## CCN(CC)c1ccc(C(=O)NCCn2c(C)cc3ccccc32)cc1C(F)(F)F
[1]
  Kb: 310 nM

## COc1ccc(C(=O)NCCn2c(C)cc3ccccc32)cc1
[1]
  Kb: 75.6 nM

## Cc1cc2cc(F)ccc2n1CCNC(=O)c1ccc(N2CCN(C)CC2)c(F)c1
[1]
  Kb: 62.2 nM
